Experimental data reported in patent US6534525B1, “2-substituted piperidine analogs and their use as subtype-selective NMDA receptor antagonists” (Warner-Lambert & Company, priority 1995, dated 2003).

What was measured:
[1] = molecular target: NMDA receptor subunits 1A/2A (NR1A+NR2A) (Rattus norvegicus, UniProt P35439+Q00959); assay: Electrophysiological assay at cloned NMDA receptor subunits expressed in Xenopus oocytes, 1A/2A; type: cell-based; details: cloned rat NMDA receptor in Xenopus oocytes, two-electrode voltage clamp, currents activated by glutamate and glycine; read-out: Subunits (IC50(μM)) 1A/2A
Chain of NMDA receptor subunits 1A/2A (NR1A+NR2A) (Q00959 23-1464, other chains not shown): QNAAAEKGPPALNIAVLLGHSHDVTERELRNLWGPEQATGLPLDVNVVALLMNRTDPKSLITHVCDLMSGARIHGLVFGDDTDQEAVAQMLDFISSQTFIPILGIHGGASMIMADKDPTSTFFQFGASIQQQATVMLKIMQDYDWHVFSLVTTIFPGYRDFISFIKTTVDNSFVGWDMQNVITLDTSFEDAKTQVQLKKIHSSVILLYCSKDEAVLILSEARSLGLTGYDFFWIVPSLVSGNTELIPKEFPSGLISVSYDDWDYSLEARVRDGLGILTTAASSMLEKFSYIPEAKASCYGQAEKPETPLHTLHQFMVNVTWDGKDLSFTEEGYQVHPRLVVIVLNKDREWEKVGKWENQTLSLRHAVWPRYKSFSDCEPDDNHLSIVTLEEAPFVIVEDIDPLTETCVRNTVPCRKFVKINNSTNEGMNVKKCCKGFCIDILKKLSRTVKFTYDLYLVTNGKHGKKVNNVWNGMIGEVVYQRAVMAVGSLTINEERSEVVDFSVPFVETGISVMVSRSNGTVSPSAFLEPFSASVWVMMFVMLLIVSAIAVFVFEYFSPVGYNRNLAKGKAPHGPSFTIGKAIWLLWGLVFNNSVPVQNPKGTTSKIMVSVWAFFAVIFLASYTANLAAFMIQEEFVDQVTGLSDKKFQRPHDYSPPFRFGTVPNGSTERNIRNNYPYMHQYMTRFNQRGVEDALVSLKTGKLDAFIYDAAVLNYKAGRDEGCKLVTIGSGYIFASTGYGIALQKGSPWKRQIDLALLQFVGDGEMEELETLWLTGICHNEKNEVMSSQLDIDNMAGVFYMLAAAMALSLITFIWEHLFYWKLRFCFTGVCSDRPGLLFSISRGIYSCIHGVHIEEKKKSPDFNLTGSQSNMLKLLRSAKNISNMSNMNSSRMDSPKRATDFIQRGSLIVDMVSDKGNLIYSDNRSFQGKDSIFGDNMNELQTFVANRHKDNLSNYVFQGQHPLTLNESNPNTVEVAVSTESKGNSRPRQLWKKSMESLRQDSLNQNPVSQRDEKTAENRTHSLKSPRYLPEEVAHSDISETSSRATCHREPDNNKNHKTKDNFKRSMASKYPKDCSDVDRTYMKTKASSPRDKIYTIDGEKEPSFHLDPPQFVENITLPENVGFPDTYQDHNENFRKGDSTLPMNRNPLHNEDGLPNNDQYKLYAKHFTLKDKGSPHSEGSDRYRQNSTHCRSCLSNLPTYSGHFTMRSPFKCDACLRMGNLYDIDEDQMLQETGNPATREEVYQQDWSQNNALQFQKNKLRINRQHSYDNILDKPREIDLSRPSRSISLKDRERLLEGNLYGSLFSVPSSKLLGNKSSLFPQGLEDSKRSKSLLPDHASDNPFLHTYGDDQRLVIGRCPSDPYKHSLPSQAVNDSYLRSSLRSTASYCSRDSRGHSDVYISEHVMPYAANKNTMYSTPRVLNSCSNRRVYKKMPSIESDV
Experimental: (§1) Electrophysiological Assays at NMDA Receptor Subunits
(§2) The clones were transformed into appropriate host bacteria and plasmid preparations were made with conventional DNA purification techniques. A sample of each clone was linearized by restriction enzyme digestion and cRNA was synthesized with T3 RNA polymerase. The cRNA was diluted to 400 ng/μl and stored in 1 μl aliquots at −80° C. until injection.
(§3) The Xenopus oocyte Expression System
(§4) Follicle-enclosed oocytes were micro-injected with 1:1 mixtures of cRNA:NR1A+NR2A, 2B, 2C or 2D; injecting ˜2,5, or 20 ng of RNA encoding each receptor subunit. NR1A encoding cRNA was injected alone at ˜20 ng. Oocytes were stored in Barth's medium containing (in mM):NaCl, 88; KCl, 1; CaCl2, 0.41; Ca(NO3)2, 0.33; MgSO4, 0.82 NaHCO3, 2.4; HEPES 5, pH 7.4, with 0.1 mg/ml gentamicin sulphate. While oocytes were still surrounded by enveloping ovarian tissues the Barth's medium was supplemented with 0.1% bovine serum.
(§5) Electrical recordings were made using a conventional two-electrode voltage clamp (Dagan TEV-200) over periods ranging between 3-14 days following injection. […] Drugs were applied by bath perfusion. Using oocytes expressing different subunit combinations of NMDA receptor, NMDA currents were activated by co-application of glutamate and glycine. Inhibitory potency of the novel antagonists was assessed on responses elicited by fixed concentrations of glutamate and glycine, by measuring reductions in current induced by progressively increasing concentrations of antagonists.
(§6) Concentration-inhibition curves were fit with equation 1.
(§7) in which Icontrol is the current evoked by agonists alone, pIC50=−log IC50, IC50 is the concentration of antagonist that produces half maximal inhibition, and n is the slope factor. […] For incomplete curves analysis by fitting was unreliable and IC50 values were calculated by simple regression over linear portions of the curves (Origin: Microcal Software).

[2] = molecular target: NMDA receptor subunits 1A/2D (NR1A+NR2D) (Rattus norvegicus, UniProt P35439+Q62645); assay: Electrophysiological assay at cloned NMDA receptor subunits expressed in Xenopus oocytes, 1A/2D; type: cell-based; details: two-electrode voltage clamp, currents activated by glutamate and glycine
Chain of NMDA receptor subunits 1A/2D (NR1A+NR2D) (Q62645 28-1323, other chains not shown): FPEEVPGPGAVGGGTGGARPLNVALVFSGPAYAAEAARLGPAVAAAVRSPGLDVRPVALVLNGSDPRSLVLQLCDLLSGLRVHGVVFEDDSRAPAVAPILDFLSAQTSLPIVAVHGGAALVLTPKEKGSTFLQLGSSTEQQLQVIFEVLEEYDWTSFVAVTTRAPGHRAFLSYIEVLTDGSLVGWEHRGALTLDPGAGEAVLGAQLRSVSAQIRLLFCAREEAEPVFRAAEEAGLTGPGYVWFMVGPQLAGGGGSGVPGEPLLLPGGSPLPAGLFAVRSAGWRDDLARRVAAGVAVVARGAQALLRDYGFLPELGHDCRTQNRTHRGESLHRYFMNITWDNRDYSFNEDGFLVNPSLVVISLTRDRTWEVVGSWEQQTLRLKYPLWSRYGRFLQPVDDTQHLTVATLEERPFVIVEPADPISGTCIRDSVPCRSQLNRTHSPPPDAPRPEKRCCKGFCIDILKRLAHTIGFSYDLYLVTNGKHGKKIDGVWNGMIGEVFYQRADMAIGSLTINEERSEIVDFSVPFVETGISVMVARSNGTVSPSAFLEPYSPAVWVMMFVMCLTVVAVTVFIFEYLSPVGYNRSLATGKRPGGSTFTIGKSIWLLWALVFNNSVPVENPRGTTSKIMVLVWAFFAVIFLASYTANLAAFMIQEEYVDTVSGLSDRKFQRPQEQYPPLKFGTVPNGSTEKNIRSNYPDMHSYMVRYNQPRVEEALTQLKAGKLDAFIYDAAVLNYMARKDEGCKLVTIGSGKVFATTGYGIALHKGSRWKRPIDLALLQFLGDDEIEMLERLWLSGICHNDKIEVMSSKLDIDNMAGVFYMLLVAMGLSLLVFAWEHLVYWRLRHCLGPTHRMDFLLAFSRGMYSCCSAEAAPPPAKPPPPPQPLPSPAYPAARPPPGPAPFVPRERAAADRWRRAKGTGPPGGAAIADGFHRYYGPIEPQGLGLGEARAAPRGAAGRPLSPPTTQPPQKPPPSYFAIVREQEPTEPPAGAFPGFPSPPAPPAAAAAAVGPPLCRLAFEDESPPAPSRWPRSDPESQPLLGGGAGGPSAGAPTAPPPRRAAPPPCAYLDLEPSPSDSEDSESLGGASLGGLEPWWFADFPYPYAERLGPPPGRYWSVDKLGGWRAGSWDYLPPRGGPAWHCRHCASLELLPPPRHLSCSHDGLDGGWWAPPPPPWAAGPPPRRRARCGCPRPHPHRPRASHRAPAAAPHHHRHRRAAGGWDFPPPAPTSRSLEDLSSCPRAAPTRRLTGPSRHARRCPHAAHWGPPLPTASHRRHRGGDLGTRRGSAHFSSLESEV
Source text: Electrophysiological Assays at NMDA Receptor Subunits […]
cDNA clones encoding the NR1A, NR2A, NR2B, NR2C and NR2D rat NMDA receptor subtypes were provided by Dr. P. H. Seeburg (see, Morivoshi et al., Nature (Lond.) 354:31-37 (1991); Kutsuwada et al., Nature (Lond.) 358:36-41 (1992) Monyer et al., Science (Washington. D.C.) 256:1217-1221 (1992); Ikeda et al., FEBS Lett. 313:34-38 (1992); Ishii et al., J. Biol. Chem. 268:2836-2843 (1993) for details of these clones or their mouse homologs). The clones were transformed into appropriate host bacteria and plasmid preparations were made with conventional DNA purification techniques. A sample of each clone was linearized by restriction enzyme digestion and cRNA was synthesized with T3 RNA polymerase. The cRNA was diluted to 400 ng/μl and stored in 1 μl aliquots at −80° C. until injection.
The Xenopus oocyte Expression System […]
Electrical recordings were made using a conventional two-electrode voltage clamp (Dagan TEV-200) over periods ranging between 3-14 days following injection. […] Inhibitory potency of the novel antagonists was assessed on responses elicited by fixed concentrations of glutamate and glycine, by measuring reductions in current induced by progressively increasing concentrations of antagonists. […]

[3] = molecular target: NMDA receptor subunits 1A/2B (NR1A+NR2B) (Rattus norvegicus, UniProt P35439+Q00960); assay: Electrophysiological assay at cloned NMDA receptor subunits expressed in Xenopus oocytes, 1A/2B; type: cell-based; details: cloned rat NMDA receptor in Xenopus oocytes, two-electrode voltage clamp, currents activated by glutamate and glycine; read-out: Subunits (IC50(μM)) 1A/2B
Chain of NMDA receptor subunits 1A/2B (NR1A+NR2B) (Q00960 27-1482, other chains not shown): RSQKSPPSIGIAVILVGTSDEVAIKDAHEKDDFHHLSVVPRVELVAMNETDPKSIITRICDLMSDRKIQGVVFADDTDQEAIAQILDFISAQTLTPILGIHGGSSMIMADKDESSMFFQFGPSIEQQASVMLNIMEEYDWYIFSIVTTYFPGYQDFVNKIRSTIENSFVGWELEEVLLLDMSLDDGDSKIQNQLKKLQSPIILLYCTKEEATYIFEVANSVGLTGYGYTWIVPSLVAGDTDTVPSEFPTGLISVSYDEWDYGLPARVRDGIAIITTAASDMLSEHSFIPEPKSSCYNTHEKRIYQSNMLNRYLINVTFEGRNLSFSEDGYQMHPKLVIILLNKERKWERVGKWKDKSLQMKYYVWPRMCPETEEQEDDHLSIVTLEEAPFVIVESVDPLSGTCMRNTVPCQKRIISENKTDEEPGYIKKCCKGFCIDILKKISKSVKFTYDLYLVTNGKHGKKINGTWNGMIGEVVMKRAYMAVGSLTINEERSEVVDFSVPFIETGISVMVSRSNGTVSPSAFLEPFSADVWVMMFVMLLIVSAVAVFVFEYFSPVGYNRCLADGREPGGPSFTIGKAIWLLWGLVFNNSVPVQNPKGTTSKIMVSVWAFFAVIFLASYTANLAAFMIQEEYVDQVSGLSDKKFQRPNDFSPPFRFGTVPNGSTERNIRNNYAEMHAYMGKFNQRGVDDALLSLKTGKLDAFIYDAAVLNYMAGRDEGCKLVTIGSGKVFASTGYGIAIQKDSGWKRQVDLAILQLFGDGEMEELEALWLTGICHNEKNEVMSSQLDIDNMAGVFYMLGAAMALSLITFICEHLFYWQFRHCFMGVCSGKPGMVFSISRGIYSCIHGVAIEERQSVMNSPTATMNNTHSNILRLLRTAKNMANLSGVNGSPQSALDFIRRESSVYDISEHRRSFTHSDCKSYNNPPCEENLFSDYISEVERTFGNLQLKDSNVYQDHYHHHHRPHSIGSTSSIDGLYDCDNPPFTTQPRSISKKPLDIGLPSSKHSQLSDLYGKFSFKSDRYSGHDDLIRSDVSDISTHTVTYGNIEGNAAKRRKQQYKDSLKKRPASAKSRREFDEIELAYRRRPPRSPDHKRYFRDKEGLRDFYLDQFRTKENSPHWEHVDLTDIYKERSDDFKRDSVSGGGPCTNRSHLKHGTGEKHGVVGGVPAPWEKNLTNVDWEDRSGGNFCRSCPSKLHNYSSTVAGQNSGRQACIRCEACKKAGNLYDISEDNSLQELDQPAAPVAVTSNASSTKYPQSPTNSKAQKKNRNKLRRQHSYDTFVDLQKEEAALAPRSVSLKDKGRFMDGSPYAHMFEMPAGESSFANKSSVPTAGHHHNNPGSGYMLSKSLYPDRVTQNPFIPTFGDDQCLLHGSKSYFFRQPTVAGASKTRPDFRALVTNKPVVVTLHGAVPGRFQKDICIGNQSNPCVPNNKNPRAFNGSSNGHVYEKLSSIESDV
Experimental: as §1, §2, §3, §4, §5, §6, §7

[4] = molecular target: NMDA receptor subunits 1A/2C (NR1A+NR2C) (Rattus norvegicus, UniProt P35439+Q00961); assay: Electrophysiological assay at cloned NMDA receptor subunits expressed in Xenopus oocytes, 1A/2C; type: cell-based; details: cloned rat NMDA receptor in Xenopus oocytes, two-electrode voltage clamp, currents activated by glutamate and glycine; read-out: Subunits (IC50(μM)) 1A/2C
Experimental: as §1, §2, §3, §4, §5, §6, §7

[5] = tested on: maximal electroshock-induced seizures; assay: Maximal electroshock-induced seizures (MES); type: in vivo, mice; details: Mus musculus; mice, tonic hindlimb extensor response, 50 mA corneal electrodes; read-out: MES (ED50)
Experimental: Maximal Electroshock-induced Seizures
Seizures were induced by application of current (50 mA, 60 pulses/sec, 0.8 sec pulse width, 1 sec duration, d.c.) through saline-coated corneal electrodes using a Ugo Basile ECT device (Model 7801). […] A tonic seizure was defined as a hindlimb extension in excess of 90 degrees from the plane of the body. Results were treated in a quantal manner.

| Compound | IC50 [1] [µM] | IC50 [2] [µM] | IC50 [3] [µM] | IC50 [4] [µM] | ED50 [5] [mg/kg] |
| --- | --- | --- | --- | --- | --- |
| Cc1ccccc1OCC(O)CN1CCCCC1Cc1ccccc1 (stereo not drawn) [Example 18, 2-Benzyl-1-[2-hydroxy-3-(2-methyl)phenoxy]propylpiperidine] | 23 | > 300 | 50 | > 100 |  |
| CCOc1ccccc1OCC1CCCCN1CCCOc1ccccc1 (stereo not drawn) [Example 17, 2-[(2-Ethoxy)phenyoxy]methyl-1-(3-phenoxy)propylpiperidine] | 13 | > 300 | 35 | 110 | 1 |
